Calls of active or inactive are those of the source. The calls are words filed in the database; no cut-off is given here.

Data set [1] has as its system Mus musculus. The experiment in a line: Antioxidant activity against AAPH-induced lipid peroxidation in ICR mouse assessed as increase in ORAC score in plasma at 300 mg/kg, po after 1 hr relative to control. It counts as functional.
A short description of data set [2]: Drug level in human plasma after 0.5 hrs. It counts as ADME, cell-free.
Data set [3] deals with Plasma. The experiment in a line: Drug level in ICR mouse plasma assessed as free compound level after 1 hr in presence of beta-glucuronidase by HPLC-ESI-MS/MS analysis relative to total compound level. The format is ADME, cell-free.
The subject of data set [4] is Mus musculus. As to the kind of experiment: Antiinflammatory activity against carrageenan-induced paw edema in ICR mouse at 300 mg/kg, po administered 1 hr before carrageenan challenge measured after 24 hrs by plethysmometer relative to control. It counts as functional. A general note: Carrageenan injected into the paw causes an acute inflammation.
Data set [5] relates to Mus musculus. The experiment in a line: Antiinflammatory activity against carrageenan-induced paw edema in ICR mouse at 300 mg/kg, po administered 6 hr before carrageenan challenge measured after 3 to 24 hrs by plethysmometer. It counts as functional, organism-based. On the set-up: dose 300 mg/kg.
A short description of data set [6]: Drug level in human plasma after 6 hrs. The format is ADME, cell-free.
For data set [7], the system named is Mus musculus. The experiment in a line: Antiinflammatory activity against carrageenan-induced paw edema in ICR mouse at 300 mg/kg, po administered 1 hr before carrageenan challenge measured after 3 hrs by plethysmometer relative to control. The format is functional.
The subject of data set [8] is Mus musculus. The experiment in a line: Antioxidant activity against AAPH-induced lipid peroxidation in ICR mouse assessed as decrease in ORAC score in plasma at 300 mg/kg, po after 6 hr relative to control. It counts as functional. On the set-up: scale not given: the % may be the effect or the level left.
In data set [9] the test system is Mus musculus. As to the kind of experiment: Antiinflammatory activity against carrageenan-induced paw edema in ICR mouse at 300 mg/kg, po administered 1 hr before carrageenan challenge measured after 6 hrs by plethysmometer relative to control. The format is functional.
In data set [10] the test system is Plasma. As to the kind of experiment: Drug level in ICR mouse plasma assessed as free compound level after 1 hr in presence of beta-glucuronidase by HPLC-ESI-MS/MS analysis. The format is ADME, cell-free.
The test system of data set [11] is Plasma. The experiment in a line: Drug level in ICR mouse plasma assessed as free compound level after 6 hrs in presence of beta-glucuronidase by HPLC-ESI-MS/MS analysis relative to total compound level. It counts as ADME, cell-free.
Data set [12] relates to Plasma. The experiment in a line: Drug level in ICR mouse plasma assessed as free compound level after 6 hrs in presence of beta-glucuronidase by HPLC-ESI-MS/MS analysis. The format is ADME, cell-free.
Data set [13] in a line: Drug level in rat plasma at 5 mg after 6 hrs. It counts as ADME, cell-free.

For the molecule `O=c1oc2cc(O)ccc2c2ccc(O)cc12`, the Activity in the data set on Mus musculus [1] was 142%; in the data set on Mus musculus [4], 34%; in the data set on Mus musculus [7], 35%; with Mus musculus [8] it was 118%; with Mus musculus [9], 26%. In [2], this molecule displayed a concentration at 0.5 h of 40 nM. For the same molecule, the “Cp(f)” value in the data set on Plasma [3] was 77.2%; with Plasma [10] it was 2850 nM; in the data set with Plasma [11], 65.7%; in the data set with Plasma [12] it was 830 nM. In the data set with Mus musculus [5], the outcome was inactive. This molecule also registered a concentration at 6 h in [6] of 110 nM.
For the molecule `O=C1O[C@H]2[C@@H]3OC(=O)c4cc(O)c(O)c(O)c4-c4c(cc(O)c(O)c4O)C(=O)OC[C@H]2O[C@@H](OC(=O)c2cc(O)c(O)c(O)c2)[C@@H]3OC(=O)c2cc(O)c(O)c3c2[C@@H]2C1=CC(=O)[C@](O)(O3)C2(O)O` [GERANIIN], the concentration at 6 h in data set [13] was 450 nM.
